From patent US20130172407A1, “Inhibition of Cancer Cell Proliferation Using Oleoylethanolamide” (China Medical University, priority 2011, published 2013)

Tests used:
Assay type in all cases: cell-based, Human
A549 cells = experiment: MTT cell viability analysis, A549 cells; conditions: 24 hours, OEA 50, 100, 200 μM and lycopene 2, 5 μM compared to control group, synergy groups (200 μM OEA + 2 or 5 μM lycopene) compared to OEA group 3 and lycopene groups 1 and 2, FIG. 4
Method: (§1) HT-29 cells were cultured in a 75-cm^2 flask containing McCoy's medium (Invitrogen Inc., Carlsbad, Calif., USA) supplemented with 10% Fetal Bovine Serum (FBS), 2 mM glutamine and 1.5 g/L sodium bicarbonate. The remaining cells were cultured in a 75-cm^2 flask containing RPMI 1640 medium (Hyclone, Grand Island, N.Y., USA) supplemented with 10% Fetal Bovine Serum (FBS), 2 mM glutamine and 1.5 g/L sodium bicarbonate. These cells were cultured in an incubator with culture conditions set at 37° C. and 5% CO2. […]
(§2) • {3-[4,5-Dimethylthiazol-2-yl]-2,5-diphenyltetrazolium bromide} (MTT, 0.5 mg/mL, 200 μL) was added to the cell culture of each group, followed by incubation in an incubator (37° C., 5% CO2) for 2 hours. […] The absorbance at 570 nm (OD570) for each well was detected using a microplate reader (Tecan Inc., Mannedorf, Switzerland).
(§3) Cell viability percentage (%) was calculated by substituting the detected absorbance (OD570) to the following formula (1):
(§4) A=(B/C)×100 Formula (1): • wherein: • A=cell viability percentage (%) • B=the detected OD570 absorbance of each group • C=the detected OD570 absorbance of control group

Huh-7 cells = experiment: MTT cell viability analysis, Huh-7 cells; conditions: 24 hours, OEA 50, 100, 200 μM and lycopene 2, 5 μM compared to control group, synergy groups (200 μM OEA + 2 or 5 μM lycopene) compared to OEA group 3 and lycopene groups 1 and 2, FIG. 6
Method: as §1, §2, §3, §4

HT-29 cells [1] = experiment: FITC Annexin V / PI flow cytometry, cell death (apoptosis); conditions: FITC Annexin V and PI positive, OEA 200 μM and lycopene 5 μM compared to control group, synergy groups compared to OEA group 3 and lycopene group 2, FIG. 11
Method: In order to further investigate the usefulness of OEA and its combination with lycopene in inducing cell apoptosis of human colorectal cancer cell line HT-29, HT-29 cell cultures of control group, OEA group 3, lycopene groups 1 and 2 and synergy groups 1 and 2 obtained according to the above Item B in Example 2 were used for subsequent experiments.
First, the cell culture of each group was collected and washed with cold PBS twice followed by centrifugation at 300 g for 5 minutes. The supernatant was removed and 1× Annexin V Binding Buffer (BD Pharmingen™) was added to sufficiently re-suspend the cell pellet thereby obtaining a cell suspension having a cell concentration of 1×10^5 cells/mL. […]
Then, the stained cells were analyzed using BD FACSAria™ flow cytometry, wherein cells stained with FITC Annexin V and PI, i.e., FITC Annexin V positive and PI positive, represent cells that were induced with apoptosis and died, while cells that could not be stained with FITC Annexin V and PI, i.e., FITC Annexin V negative and PI negative, represent viable cells. The number of cells stained with FITC Annexin V and PI was calculated using BD FACSDiVa™ software.
The cell death percentage (%) of each group was calculated by substituting the detected cell number to the following formula (2): […]

cyclin D1 = experiment: Western Blotting analysis of nuclear protein, cyclin D1 expression in HT-29 cells; conditions: HT-29 nuclear protein; OEA 200 μM, lycopene 2 and 5 μM compared to control group; synergy groups compared to OEA group 3 and lycopene groups 1 and 2; FIG. 10
Method: (§5) In order to detect the protein expression of HT-29 cells, the HT-29 cell culture treated with different solutions for use in the instant experiment was obtained substantially according to “B. Treatment of various cancer cell lines with OEA solutions, lycopene solutions and combined solutions” in the above Example 2. The difference was that the cells of each group were cultured in a culture dish having a diameter of 10 cm. Experimental groups were added with different solutions according to those shown in Table 3 and the amount added was 10 mL.
(§6) Then, the HT-29 cell cultures of the control group, OEA group 3, lycopene groups 1 and 2 and synergy groups 1 and 2 were washed with PBS twice followed by adding 75 μL lysis buffer (containing PBS, 1% Ipegal CA-630 (Sigma, St. Louis, Mo.), 0.5% sodium deoxycholate, 0.1% SDS, 100 μM phenylmethylsulfonyl fluoride, 20 μg/mL aprotinin, 1 mM PMSF and 3 μM sodium orthovanadate) and uniformly mixing. The resultant cell mixtures were subjected to nuclear protein extraction using NE-PER® Nuclear and Cytoplasmic Extraction Reagents (Thermo Scientific, Cat. No. 78833) according to the manufacturer's operation guide, thereby obtaining nuclear protein samples. […]

p-NF-κB p65 = experiment: Western Blotting analysis of nuclear protein, p-NF-κB p65 expression in HT-29 cells; conditions: HT-29 nuclear protein; OEA 200 μM, lycopene 2 and 5 μM compared to control group; synergy groups compared to OEA group 3 and lycopene groups 1 and 2; FIG. 10
Method: as §5, §6

CAL 27 cells = experiment: MTT cell viability analysis, CAL 27 cells; conditions: 24 hours, OEA 50, 100, 200 μM and lycopene 2, 5 μM compared to control group, synergy groups (200 μM OEA + 2 or 5 μM lycopene) compared to OEA group 3 and lycopene groups 1 and 2, FIG. 7
Method: as §1, §2, §3, §4

MDA-MB-231 cells = experiment: MTT cell viability analysis, MDA-MB-231 cells; conditions: 24 hours, OEA 50, 100, 200 μM and lycopene 2, 5 μM compared to control group, synergy groups (200 μM OEA + 2 or 5 μM lycopene) compared to OEA group 3 and lycopene groups 1 and 2, FIG. 5
Method: as §1, §2, §3, §4

AGS cells = experiment: MTT cell viability analysis, AGS cells; conditions: 24 hours, OEA 50, 100, 200 μM and lycopene 2, 5 μM compared to control group, synergy groups (200 μM OEA + 2 or 5 μM lycopene) compared to OEA group 3 and lycopene groups 1 and 2, FIG. 8
Method: as §1, §2, §3, §4

SW-480 cells = experiment: MTT cell viability analysis, SW-480 cells; conditions: 24 hours, OEA 50, 100, 200 μM and lycopene 2, 5 μM compared to control group, synergy groups (200 μM OEA + 2 or 5 μM lycopene) compared to OEA group 3 and lycopene groups 1 and 2, FIG. 3
Method: as §1, §2, §3, §4

HT-29 cells [2] = experiment: Flow cytometry cell cycle analysis (PI staining, Sub-G1 phase); conditions: 24 hours, OEA 50, 100, 200 μM, lycopene 2, 5 μM, synergy groups (200 μM OEA + 2 or 5 μM lycopene) compared to OEA groups 1-3 and lycopene groups 1 and 2, FIG. 9
Method: In order to understand the effect of OEA and its combination with lycopene on the cell cycle and proliferation of human colorectal cancer cell line HT-29, HT-29 cell culture treated with different solutions obtained from Item B of Example 2 was used for the following experiments.
Each group of the HT-29 cell culture obtained from Item B of Example 2 was washed with PBS twice followed by fixing the cells with 70% (w/v) cold ethanol for 1 hour. Then, the obtained fixed cells were washed with cold PBS followed by centrifugation at 300 g for 5 minutes. […]
Subsequently, the obtained dyed cells were subjected to cell cycle analysis using BD FACSCanto™ flow cytometer (BD Biosciences, Cat. No. 338960), and the DNA content of 1×10^4 cells was analyzed in each analysis. The cells would emit fluorescence when excited by laser beam of argon ion at 488 nm. Cell cycle profile was analyzed from DNA content histograms using BD FACSDiVa™ software (Becton Dickinson, Cat. No. 643629). […] The percentage of the cells in Sub-G1 phase was analyzed using ModFit LT software.
The obtained experimental data was analyzed according to the method described in “Statistical Analysis” in the section of “General experimental procedure”.

HCT 116 cells = experiment: MTT cell viability analysis, HCT 116 cells; conditions: 24 hours, OEA 50, 100, 200 μM and lycopene 2, 5 μM compared to control group, synergy groups (200 μM OEA + 2 or 5 μM lycopene) compared to OEA group 3 and lycopene groups 1 and 2, FIG. 2
Method: as §1, §2, §3, §4

HT-29 cells [3] = experiment: MTT cell viability analysis, HT-29 cells; conditions: 24 hours, OEA 50, 100, 200 μM and lycopene 2, 5 μM compared to control group, synergy groups (200 μM OEA + 2 or 5 μM lycopene) compared to OEA group 3 and lycopene groups 1 and 2, FIG. 1
Method: as §1, §2, §3, §4

CCCCCCCC/C=C\CCCCCCCC(=O)NCCO [OEA, oleoylethanolamide]
cell viability percentage (A549 cells): reduced
cell viability percentage (Huh-7 cells): reduced
cell death percentage (HT-29 cells [1]): elevated
amount of cyclin D1 expression (cyclin D1): reduced
amount of p-NF-κB p65 expression (p-NF-κB p65): reduced
cell viability percentage (CAL 27 cells): reduced
cell viability percentage (MDA-MB-231 cells): reduced
cell viability percentage (AGS cells): reduced
cell viability percentage (SW-480 cells): reduced
percentage of HT-29 cells in Sub-G1 phase (HT-29 cells [2]): promote HT-29 cells to be in Sub-G1 phase
cell viability percentage (HCT 116 cells): reduced
cell viability percentage (HT-29 cells [3]): reduced

CC(C)=CCC/C(C)=C/C=C/C(C)=C/C=C/C(C)=C/C=C/C=C(C)/C=C/C=C(C)/C=C/C=C(\C)CCC=C(C)C [lycopene]
cell viability percentage (A549 cells): reduced
cell viability percentage (Huh-7 cells): reduced
cell death percentage (HT-29 cells [1]): elevated
amount of cyclin D1 expression (cyclin D1): reduced
amount of p-NF-κB p65 expression (p-NF-κB p65): reduced
cell viability percentage (CAL 27 cells): reduced
cell viability percentage (MDA-MB-231 cells): reduced
cell viability percentage (AGS cells): reduced
cell viability percentage (SW-480 cells): reduced
percentage of HT-29 cells in Sub-G1 phase (HT-29 cells [2]): promote HT-29 cells to be in Sub-G1 phase
cell viability percentage (HCT 116 cells): reduced
cell viability percentage (HT-29 cells [3]): reduced
